From patent US10562893B2, “Benzimidazoles derivatives as Tec kinases family inhibitors” (GB005, Inc., priority 2015, dated 2020)

Tests used:
RLK/TXK = RLK/TXK (Homo sapiens (Human), UniProt P42681); assay: RLK/TXK kinase inhibition assay; assay type: biochemical; settings: micro-fluidic detection, 3 hours at 25° C.
Description: (§1) The in vitro kinase assays were performed at Nanosyn utilizing micro-fluidic detection technology. The test compounds were serially pre-diluted in DMSO and added, by the acoustic dispensing (Labcyte® 550), directly to 384well assay plates into 10 uL of a buffer with enzyme comprising: 100 mM HEPES, pH7.5, 5 mM MgCl2, 0.1% bovine serum albumin, 1 mM DTT, 0.01% Triton X-100 and the enzyme. Final DMSO concentration was maintained at 1% in all samples, including the controls. The reactions were initiated by addition of ATP (to the specified concentration) and the fluorescently labeled peptide substrate to a final concentration of 1 uM, and incubated for 3 hours at 25° C. Following incubation, the reactions were quenched by addition of 40 μL of termination buffer (100 mM HEPES, pH7.5, 0.01% Triton X-100, 50 mM EDTA). Terminated plates were analyzed using Caliper LabChip® 3000 microfluidic electrophoresis instrument (Caliper Life Sciences/Perkin Elmer). The enzymatic modification of the peptide substrate (phosphorylation) results in a change of net charge enabling electrophoretic separation of product from substrate. As substrate and product are separated by electrophoresis, two peaks of fluorescence are observed. Change in the relative fluorescence intensity of the substrate and product peaks was the parameter measured, reflecting enzyme activity. In the presence of inhibitor, the ratio between product and substrate is altered: signal of the product decreases, while the signal of the substrate increases. Activity in each test sample was determined as the product to sum ratio (PSR): P/(S+P), where P is the peak height of the product and S is the peak height of the […]. For each compound, enzyme activity was measured at 12 concentrations spaced by 3× dilution intervals. Negative control samples (0%-inhibition in the absence of inhibitor, DMSO only) and positive control samples (100%-inhibition, in the absence of enzyme or in the presence of control inhibitor) were assembled in replicates of four and were used to calculate %-inhibition values in the presence of compounds. Percent inhibition (Pinh) was determined using the following equation: Pinh=(PSR0%−PSRinh)/(PSR0%−PSR100%)*100, where PSRinh is the product sum ratio in the presence of inhibitor, PSR0% is the product sum ratio in the absence of inhibitor and PSR100% is the product sum ratio in 100%-inhibition control samples. To determine IC50 values, the inhibition curves (Pinh versus inhibitor concentration) were fitted by 4 parameter sigmoid dose-response model using XLfit software (IDBS).

Tec kinase = Tec kinase (Homo sapiens (Human), UniProt P42680); assay: Tec kinase inhibition assay; assay type: biochemical; settings: micro-fluidic detection, 3 hours at 25° C.
Description: as §1, with “[…],” for “P/(S+P),”

Tec kinase, sequence (P42680 whole entry): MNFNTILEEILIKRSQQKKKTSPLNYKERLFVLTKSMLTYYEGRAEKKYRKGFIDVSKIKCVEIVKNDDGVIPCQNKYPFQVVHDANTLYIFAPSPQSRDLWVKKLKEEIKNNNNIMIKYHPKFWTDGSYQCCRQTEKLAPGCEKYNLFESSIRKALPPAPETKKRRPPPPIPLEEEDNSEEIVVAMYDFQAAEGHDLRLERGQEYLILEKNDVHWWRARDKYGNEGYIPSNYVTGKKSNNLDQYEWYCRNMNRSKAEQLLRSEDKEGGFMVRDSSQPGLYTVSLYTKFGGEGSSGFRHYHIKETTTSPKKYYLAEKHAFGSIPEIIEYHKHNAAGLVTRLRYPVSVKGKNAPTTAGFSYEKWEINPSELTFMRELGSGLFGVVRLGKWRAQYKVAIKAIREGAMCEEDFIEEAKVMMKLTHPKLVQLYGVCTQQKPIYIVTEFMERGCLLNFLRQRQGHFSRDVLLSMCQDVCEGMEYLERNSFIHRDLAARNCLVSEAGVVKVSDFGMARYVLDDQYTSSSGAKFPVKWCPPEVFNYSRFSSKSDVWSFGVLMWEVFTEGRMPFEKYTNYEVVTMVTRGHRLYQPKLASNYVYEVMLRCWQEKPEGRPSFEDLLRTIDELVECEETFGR
RLK/TXK, sequence (P42681 whole entry): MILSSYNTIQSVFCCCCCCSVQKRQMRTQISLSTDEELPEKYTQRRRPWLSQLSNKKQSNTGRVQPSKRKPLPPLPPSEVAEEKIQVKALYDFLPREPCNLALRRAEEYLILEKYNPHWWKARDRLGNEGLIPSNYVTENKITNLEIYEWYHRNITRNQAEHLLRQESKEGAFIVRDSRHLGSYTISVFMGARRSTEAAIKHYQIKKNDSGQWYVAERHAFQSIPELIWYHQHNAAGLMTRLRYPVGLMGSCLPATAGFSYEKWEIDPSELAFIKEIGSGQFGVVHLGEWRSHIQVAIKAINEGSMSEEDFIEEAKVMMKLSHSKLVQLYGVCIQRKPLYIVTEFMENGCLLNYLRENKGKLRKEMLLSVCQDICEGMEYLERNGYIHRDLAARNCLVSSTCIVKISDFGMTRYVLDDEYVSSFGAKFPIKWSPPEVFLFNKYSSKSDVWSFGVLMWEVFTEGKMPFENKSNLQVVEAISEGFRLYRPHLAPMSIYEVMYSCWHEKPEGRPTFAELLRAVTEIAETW

## C=CC(=O)Nc1cccc(-n2c(NC(=O)c3ccc(C(F)F)s3)nc3cc(CN[C@@H](C)C(C)(C)C)ccc32)c1 [Compound 2]
RLK/TXK
  EC50: < 10 nM
Tec kinase
  EC50: 10 to 100 nM

## C=CC(=O)Nc1cccc(-n2c(NC(=O)c3ccno3)nc3cc(CN[C@@H](C)C(C)(C)C)ccc32)c1 [Compound 38]
RLK/TXK
  EC50: < 10 nM
Tec kinase
  EC50: 10 to 100 nM

## C=CC(=O)Nc1cccc(-n2c(NC(=O)c3ccc(-c4cnco4)s3)nc3cc(CN[C@@H](C)C(C)(C)C)ccc32)c1 [Compound 25]
RLK/TXK
  EC50: < 10 nM
Tec kinase
  EC50: < 10 nM

## C=CC(=O)Nc1cccc(-n2c(NC(=O)c3cccc(C#N)c3)nc3cc(CN[C@@H](C)C(C)(C)C)ccc32)c1 [Compound 9]
RLK/TXK
  EC50: < 10 nM
Tec kinase
  EC50: 10 to 100 nM

## C=CC(=O)Nc1cccc(-n2c(NC(=O)c3ccnn3C)nc3cc(CN[C@@H](C)C(C)(C)C)ccc32)c1 [Compound 28]
RLK/TXK
  EC50: < 10 nM
Tec kinase
  EC50: 10 to 100 nM
